Calls of active or inactive are those of the source.
Columns and labels:
[1] = inhibitors of SNCA 5'UTR-driven reporter translation, confirmation, H4 neuroglioma cells, luminescence (AID 1988); type: functional, cell-based
[2] = Luminescence Cell-Based Dose Response HTS to Identify Inhibitors of 5'UTR Stem-Loop Driven Prion Protein mRNA Translation in H4 Neuroglioblastoma Cells. [Related pubchem assays: 1827 (Project Summary), 1813 (Primary HTS)]; type: functional
[3] = target: T1, Heat shock factor protein 1 (Mus musculus, UniProt P38532); assay: HSF1 potentiators in luciferase reporter cells, confirmation, cell-based, NIH3T3, luminescence, dose retest (AID 435004); type: functional;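 also: stress induced by proteasome inhibitor MG132 added 30 min after compound; luciferase reporter driven by HSF1 response element in NIH3T3 cells; actives raise luminescence as potentiators of the MG132 stress response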
T1 sequence (P38532 whole entry): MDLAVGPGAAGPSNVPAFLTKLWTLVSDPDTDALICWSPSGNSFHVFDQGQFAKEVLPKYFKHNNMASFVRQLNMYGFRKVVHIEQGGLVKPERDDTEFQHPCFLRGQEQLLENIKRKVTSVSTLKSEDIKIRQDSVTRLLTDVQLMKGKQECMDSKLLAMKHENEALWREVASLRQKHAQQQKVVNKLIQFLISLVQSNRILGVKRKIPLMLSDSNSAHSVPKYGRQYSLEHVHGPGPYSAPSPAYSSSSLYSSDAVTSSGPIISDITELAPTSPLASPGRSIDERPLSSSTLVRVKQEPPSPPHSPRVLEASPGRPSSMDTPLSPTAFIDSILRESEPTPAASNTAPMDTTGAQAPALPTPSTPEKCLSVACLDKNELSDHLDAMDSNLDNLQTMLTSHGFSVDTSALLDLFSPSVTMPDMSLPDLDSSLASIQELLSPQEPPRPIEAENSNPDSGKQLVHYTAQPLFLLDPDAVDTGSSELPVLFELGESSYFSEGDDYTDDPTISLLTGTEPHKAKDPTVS

[4] = target: Cytochrome P450 2C19 (Homo sapiens, UniProt P33261); assay: Cytochrome panel assay with activity outcomes. Panel member name: p450-cyp2c19 Compounds with AC50 equal or less than 10 uM are considered active; type: functional; conditions: read-out: AC50
[5] = target: Cytochrome P450 2C9 (Homo sapiens, UniProt P11712)
[6] = target: T2, Streptokinase A (Streptococcus pyogenes serotype M1, UniProt P10520); assay: S. pyogenes streptokinase expression inhibitors, potency, dose response, plasminogen activation absorbance, OD405 (AID 1914); type: functional, Streptococcus pyogenes M1 GAS;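 also: secreted streptokinase activity via plasminogen activation per viability signal from cell pellet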
T2 sequence (P10520 whole entry): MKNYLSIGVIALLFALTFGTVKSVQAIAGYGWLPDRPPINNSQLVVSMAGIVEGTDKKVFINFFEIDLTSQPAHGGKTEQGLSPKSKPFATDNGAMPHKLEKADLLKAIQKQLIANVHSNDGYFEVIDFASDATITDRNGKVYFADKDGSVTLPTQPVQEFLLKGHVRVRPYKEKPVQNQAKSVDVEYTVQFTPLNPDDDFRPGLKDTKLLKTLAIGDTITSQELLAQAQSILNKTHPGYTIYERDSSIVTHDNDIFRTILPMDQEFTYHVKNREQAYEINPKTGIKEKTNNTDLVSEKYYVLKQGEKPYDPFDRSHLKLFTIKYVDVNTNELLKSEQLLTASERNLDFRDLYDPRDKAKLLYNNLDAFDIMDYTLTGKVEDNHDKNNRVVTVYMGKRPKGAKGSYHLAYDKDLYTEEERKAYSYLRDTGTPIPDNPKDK

[7] = test system: Streptococcus; assay: Group A Streptococcus viability loss, dose response, counter-screen for streptokinase expression inhibitor project, luminescence, BacTiterGlo (AID 1915); type: functional, organism-based;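 also: potency for reduction of bacterial viability or growth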
[8] = C. albicans growth with fluconazole, confirmation, fluorescence, retest (AID 2467); type: functional, cell-based
[9] = test system: Streptococcus sp. 'group A'; assay: growth inhibition of control SK(-) GAS strain, dose response, counter-screen for streptokinase expression inhibitor project, luminescence, kanamycin, BacTiterGlo, confirmation (AID 1900); type: functional, organism-based
[10] = NIH-3T3 fibroblast cytotoxicity, dose response, cytotoxicity control, cell-based, fluorescence, Alamar Blue, secondary assay (AID 2327); type: functional;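 also: NIH-3T3 mouse fibroblasts cultured with fluconazole at 8 µg/mL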
[11] = HEp-2 cell cytotoxicity, dose response, cytotoxicity control for RSV inhibitor project, HTS (AID 2410); type: functional; conditions: human respiratory syncytial virus

Chain of Cytochrome P450 2C19 (P33261 whole entry): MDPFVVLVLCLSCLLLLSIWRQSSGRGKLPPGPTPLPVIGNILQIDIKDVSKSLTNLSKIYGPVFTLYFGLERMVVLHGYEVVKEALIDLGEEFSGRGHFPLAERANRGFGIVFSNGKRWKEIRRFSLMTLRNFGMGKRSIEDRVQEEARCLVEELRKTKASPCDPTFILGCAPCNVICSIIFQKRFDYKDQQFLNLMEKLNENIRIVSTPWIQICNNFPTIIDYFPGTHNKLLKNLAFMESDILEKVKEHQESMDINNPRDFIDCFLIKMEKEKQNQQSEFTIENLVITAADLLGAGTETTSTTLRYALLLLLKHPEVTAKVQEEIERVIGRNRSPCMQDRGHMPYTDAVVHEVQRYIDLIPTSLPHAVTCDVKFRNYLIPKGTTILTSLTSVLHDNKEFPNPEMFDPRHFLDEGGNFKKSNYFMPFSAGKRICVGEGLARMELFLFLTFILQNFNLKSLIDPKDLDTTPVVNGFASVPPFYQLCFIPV
Chain of Cytochrome P450 2C9 (P11712 whole entry): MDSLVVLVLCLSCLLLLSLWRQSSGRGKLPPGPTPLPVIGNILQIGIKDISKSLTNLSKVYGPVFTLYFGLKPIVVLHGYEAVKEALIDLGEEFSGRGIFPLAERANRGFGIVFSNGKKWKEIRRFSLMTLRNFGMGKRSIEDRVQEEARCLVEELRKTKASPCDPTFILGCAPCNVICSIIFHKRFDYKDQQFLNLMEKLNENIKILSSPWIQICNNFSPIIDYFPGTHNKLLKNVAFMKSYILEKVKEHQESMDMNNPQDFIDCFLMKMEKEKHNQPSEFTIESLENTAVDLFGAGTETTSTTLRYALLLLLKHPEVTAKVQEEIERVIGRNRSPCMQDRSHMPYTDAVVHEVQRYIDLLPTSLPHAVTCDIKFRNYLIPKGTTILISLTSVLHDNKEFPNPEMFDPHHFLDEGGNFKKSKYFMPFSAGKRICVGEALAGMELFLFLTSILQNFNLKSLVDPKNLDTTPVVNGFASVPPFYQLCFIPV

COc1ccc(/C=C2\SC(=S)N(CCC(=O)NC3C=CS(=O)(=O)C3)C2=O)cc1 (centres undefined)
EC50 [1]: 13.4 µM (active)
EC50 [2]: 15.7 µM (active)

Cc1ccc(NC(=O)COC(=O)/C=C/c2ccc(Br)o2)cc1S(=O)(=O)N(C)C
EC50 [3]: > 260 µM (inactive)

CCOc1ccc(C(C)=O)cc1N1C(=O)C2C(C1=O)C1C=CC2C12CC2 (centres undefined)
AC50 [4]: 17.8 µM (inconclusive)
AC50 [5]: 14.1 µM (inconclusive)

CC1CCC(C(=O)c2c(O)oc3ccccc3c2=O)CC1 (centres undefined)
EC50 [6]: > 150 µM (not active)
EC50 [7]: 20.3 µM (active)
EC50 [8]: 2.01 µM (active)
EC50 [9]: 10.4 µM (active)
EC50 [10]: > 150 µM (inactive)

COc1ccc(C2NC(S)=NC3=C2CCc2cc(OC)ccc23)cc1 (centres undefined)
CC50 [11]: 26.4 µM (active)

CCOc1nc(NCCc2ccc(OC)c(OC)c2)nc(NC(C)(C)CO)n1
AC50 [5]: 31.6 µM (inconclusive)

O=c1c2ccccc2nc(SCc2cn3ccsc3n2)n1-c1ccccc1
EC50 [3]: > 260 µM (inactive)

CCOC(=O)C(O)(c1ccc(NC(=O)c2ccc(Cl)c(Cl)c2)cc1)C(F)(F)F (centres undefined)
CC50 [11]: 20.9 µM (active)

COc1ccc(Nc2nc(-c3ccccc3)nc3ccccc23)cc1
CC50 [11]: 13.1 µM (active)

O=C(O)[C@H]1[C@H]2c3ccccc3[C@H](c3ccccc32)[C@@H]1C(=O)NCC1CC1
AC50 [4]: 3.98 µM (inconclusive)

Cn1c(-c2ccc(Br)cc2)cnc1NCc1cccnc1
AC50 [4]: 17.8 µM (inconclusive)
AC50 [5]: 15.8 µM (inconclusive)

O=C(Nc1cccnc1)C1COc2ccccc2O1 (centres undefined)
AC50 [5]: 5.01 µM (inconclusive)

COc1cccc(C(=O)c2c(C)c(CCC#N)n3ccccc23)c1OC
EC50 [3]: > 260 µM (inactive)

CCc1nn(C(C)C(=O)NC(C)CCc2ccco2)c(=O)c2cc3occc3n12 (centres undefined)
CC50 [11]: > 50 µM (active)
EC50 [3]: > 260 µM (inactive)

S=c1[nH]cc(Cc2ccccc2)s1
EC50 [3]: > 260 µM (inactive)

O=C(CNC(=O)c1ccco1)NCc1nc2ccccc2[nH]1
EC50 [6]: > 150 µM (not active)
EC50 [7]: > 150 µM (not active)
EC50 [9]: > 150 µM (not active)

O=C(/C=C/c1ccccc1)NC(=S)NNC(=O)Cc1cccs1
EC50 [6]: > 150 µM (not active)
EC50 [7]: 30.3 µM (active)
EC50 [9]: 1.39 µM (active)

Cc1ccc(-n2c3c(c(=O)[nH]c2=O)C(C(F)(F)F)(C(F)(F)F)NC(=O)N3)cc1
AC50 [4]: 39.8 µM (inconclusive)
AC50 [5]: 20 µM (inconclusive)

COc1ccccc1C(=O)Nc1ccccc1N1CCN(C(=O)c2ccc(Cl)cc2)CC1
CC50 [11]: 26.5 µM (active)

Cc1cc(NC(=O)c2cc(C)on2)n(-c2ccccc2)n1
EC50 [3]: > 260 µM (inactive)

CC(C)(C)OC(=O)COc1cc(OCC(=O)OC(C)(C)C)c2c(=O)cc(-c3ccccc3)oc2c1
CC50 [11]: 19.6 µM (active)
AC50 [5]: 2 µM (inconclusive)

CC(=O)Nc1nnc(S(=O)(=O)N2CCN(c3ccc(Cl)cc3[N+](=O)[O-])CC2)s1
EC50 [6]: > 150 µM (not active)
EC50 [7]: > 150 µM (not active)
EC50 [9]: 29.1 µM (active)

O=C(COC(=O)c1cn(-c2ccccc2)nc1-c1ccccc1)c1ccc([N+](=O)[O-])cc1
EC50 [3]: > 260 µM (inactive)

COc1ccc2[nH]cc(CCNc3ncnc4ccc(-c5ccoc5)cc34)c2c1
AC50 [5]: 0.398 µM (inconclusive)

O=C(Nc1ccc([N+](=O)[O-])cc1)C1C(c2ccccc2)=C1c1ccccc1
EC50 [3]: > 260 µM (inactive)

Cn1ncc(Br)c1C(=O)N1CCOCC1
EC50 [3]: > 260 µM (inactive)

COCCn1nc2cc(C(=O)NCc3cc(C(F)(F)F)cc(C(F)(F)F)c3)ccc2c1OC
AC50 [4]: 3.16 µM (inconclusive)

CC[C@H](C)/C=C(C)/C=C/C(=O)Cc1cc(O)c(C)c(O)c1C=O
EC50 [3]: 27.5 µM (active)

Source: ChEMBL document CHEMBL1201862, “PubChem BioAssay data set” (2004)
